Assays:
Assay type in all cases: in vivo
Alopecurus myosuroides = experiment: greenhouse test, post-emergence treatment, ALOMY
How it was run: (§1)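 Visual rating on a 0-100 scale (100 = aerial parts destroyed or no emergence) was made 2-4 weeks after treating plants of 3-15 cm height with water-suspended or emulsified compound. Pots held loamy sand with approximately 3.0% humus; temperature 10-25 °C or 20-35 °C according to species.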

Apera spica-venti [1] = experiment: greenhouse test, post-emergence treatment, APESV
From the text: (§2) The culture containers used were plastic flowerpots containing loamy sand with approximately 3.0% of humus as the substrate. The seeds of the test plants were sown separately for each species.
(§3) For the post-emergence treatment, the test plants were first grown to a height of 3 to 15 cm, depending on the plant habit, and only then treated with the active ingredients which had been suspended or emulsified in water. For this purpose, the test plants were either sown directly and grown in the same containers, or they were first grown separately as seedlings and transplanted into the test containers a few days prior to treatment.
(§4) Depending on the species, the plants were kept at 10-25° C. or 20-35° C., respectively.
(§5) The test period extended over 2 to 4 weeks. During this time, the plants were tended, and their response to the individual treatments was evaluated.
(§6) Evaluation was carried out using a scale from 0 to 100. 100 means no emergence of the plants, or complete destruction of at least the aerial moieties, and 0 means no damage, or normal course of growth. A good herbicidal activity is given at values of at least 70 and a very good herbicidal activity is given at values of at least 85.
(§7) The plants used in the greenhouse experiments were of the following species: […]

Amaranthus retroflexus = experiment: greenhouse test, post-emergence treatment, AMARE
How it was run: as §1

Echinocloa crus-galli [2] = experiment: greenhouse test, post-emergence treatment, ECHCG
How it was run: as §1

Apera spica-venti [3] = experiment: greenhouse test, pre-emergence treatment, APESV
How it was run: (§8)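 Scores run from 0, normal growth, to 100, no emergence or aerial parts destroyed, assessed after 2 to 4 weeks at 10-25 °C or 20-35 °C depending on species. Actives in water were spray-applied immediately post-sowing onto loamy sand with approximately 3.0% humus; hoods kept on until rooting.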

Polygonum convolvulus = experiment: greenhouse test, post-emergence treatment, POLCO
From the text: as §2, §3, §4, §5, §6, §7

Matricaria inodora = experiment: greenhouse test, post-emergence treatment, MATIN; details: 2000 g/ha
From the text: as §2, §3, §4, §5, §6, §7

Setaria viridis = experiment: greenhouse test, post-emergence treatment, SETVI
From the text: as §2, §3, §4, §5, §6, §7

Echinocloa crus-galli [4] = experiment: greenhouse test, pre-emergence treatment, ECHCG
How it was run: as §8

Poa annua = experiment: greenhouse test, pre-emergence treatment, POAAN
From the text: as §2
For the pre-emergence treatment, the active ingredients, which had been suspended or emulsified in water, were applied directly after sowing by means of finely distributing nozzles. The containers were irrigated gently to promote germination and growth and subsequently covered with transparent plastic hoods until the plants had rooted. This cover caused uniform germination of the test plants, unless this had been impaired by the active ingredients.
as §4, §5, §6, §7

Avena fatua = experiment: greenhouse test, post-emergence treatment, AVEFA; details: 2000 g/ha
How it was run: as §1

Abutilon theophrasti = experiment: greenhouse test, post-emergence treatment, ABUTH; details: 2000 g/ha
From the text: as §2, §3, §4, §5, §6, §7

[5] = 500 g/ha, printed under post-emergence, method not restated
[6] = 1000 g/ha, printed under post-emergence, method not restated

Structure (SMILES): Cc1nc(C)c(-c2nc(C3CC3)ncc2-c2c(F)cccc2Cl)o1 [Ex. 309]
- herbicidal activity (Alopecurus myosuroides; post-emergence, 1000 g/ha): very good (a very good herbicidal activity is given at values of at least 85)
- herbicidal activity (Apera spica-venti [1]; 1000 g/ha): very good (a very good herbicidal activity is given at values of at least 85)
- herbicidal activity (Amaranthus retroflexus; 1000 g/ha): very good (a very good herbicidal activity is given at values of at least 85)
- herbicidal activity (Echinocloa crus-galli [2]; post-emergence, 1000 g/ha): very good (a very good herbicidal activity is given at values of at least 85)

Structure (SMILES): OCc1nc(C2CC2)ncc1-c1ccccc1Br [Ex. 13]
- herbicidal activity (Apera spica-venti [3]; 250 g/ha): very good (a very good herbicidal activity is given at values of at least 85)
- herbicidal activity (Polygonum convolvulus; 250 g/ha): very good (a very good herbicidal activity is given at values of at least 85)
- herbicidal activity (Alopecurus myosuroides; post-emergence, 250 g/ha): very good (a very good herbicidal activity is given at values of at least 85)
- herbicidal activity (Echinocloa crus-galli [2]; post-emergence, 250 g/ha): very good (a very good herbicidal activity is given at values of at least 85)

Structure (SMILES): Cc1nc(O)oc1-c1nc(C2CC2)ncc1-c1ccccc1Br [Ex. 312]
- herbicidal activity (Polygonum convolvulus; 500 g/ha): very good (a very good herbicidal activity is given at values of at least 85)
- herbicidal activity (Alopecurus myosuroides; [5]): very good (a very good herbicidal activity is given at values of at least 85)
- herbicidal activity (Alopecurus myosuroides; post-emergence, 500 g/ha): very good (a very good herbicidal activity is given at values of at least 85)
- herbicidal activity (Apera spica-venti [1]; 500 g/ha): very good (a very good herbicidal activity is given at values of at least 85)
- herbicidal activity (Echinocloa crus-galli [2]; [5]): very good (a very good herbicidal activity is given at values of at least 85)
- herbicidal activity (Echinocloa crus-galli [2]; post-emergence, 500 g/ha): very good (a very good herbicidal activity is given at values of at least 85)

Structure (SMILES): OC(Cc1nc(C2CC2)ncc1-c1ccccc1Cl)c1c(Cl)ccc(Cl)c1Cl (stereo not drawn) [Ex. 231]
- herbicidal activity (Matricaria inodora): good (A good herbicidal activity is given at values of at least 70)
- herbicidal activity (Echinocloa crus-galli [2]; post-emergence, 2000 g/ha): very good (a very good herbicidal activity is given at values of at least 85)

Structure (SMILES): CSc1ncc(-c2nc(C3CC3)ncc2-c2ccccc2Cl)cn1 [Ex. 248]
- herbicidal activity (Setaria viridis; 2000 g/ha): very good (a very good herbicidal activity is given at values of at least 85)
- herbicidal activity (Echinocloa crus-galli [4]; 2000 g/ha): very good (a very good herbicidal activity is given at values of at least 85)
- herbicidal activity (Poa annua; 2000 g/ha): very good (a very good herbicidal activity is given at values of at least 85)
- herbicidal activity (Apera spica-venti [3]; 2000 g/ha): very good (a very good herbicidal activity is given at values of at least 85)
- herbicidal activity (Alopecurus myosuroides; post-emergence, 2000 g/ha): very good (a very good herbicidal activity is given at values of at least 85)
- herbicidal activity (Echinocloa crus-galli [2]; post-emergence, 2000 g/ha): very good (a very good herbicidal activity is given at values of at least 85)

Structure (SMILES): CCCc1nc(C)c(-c2nc(C3CC3)ncc2-c2ccccc2Cl)o1 [Ex. 313]
- herbicidal activity (Setaria viridis; 1000 g/ha): very good (a very good herbicidal activity is given at values of at least 85)
- herbicidal activity (Alopecurus myosuroides; post-emergence, 1000 g/ha): very good (a very good herbicidal activity is given at values of at least 85)
- herbicidal activity (Apera spica-venti [1]; 1000 g/ha): very good (a very good herbicidal activity is given at values of at least 85)
- herbicidal activity (Echinocloa crus-galli [2]; [6]): very good (a very good herbicidal activity is given at values of at least 85)
- herbicidal activity (Echinocloa crus-galli [2]; post-emergence, 1000 g/ha): very good (a very good herbicidal activity is given at values of at least 85)

Structure (SMILES): Brc1cc(-c2nc(C3CC3)ncc2-c2ccccc2Br)co1 [Ex. 268]
- herbicidal activity (Echinocloa crus-galli [4]; 1000 g/ha): very good (a very good herbicidal activity is given at values of at least 85)
- herbicidal activity (Poa annua; 1000 g/ha): very good (a very good herbicidal activity is given at values of at least 85)
- herbicidal activity (Echinocloa crus-galli [2]; post-emergence, 1000 g/ha): very good (a very good herbicidal activity is given at values of at least 85)

Structure (SMILES): Clc1ccc(Cl)c(/C=C/c2nc(C3CC3)ncc2-c2ccccc2Cl)n1 [Ex. 257]
- herbicidal activity (Matricaria inodora): good (A good herbicidal activity is given at values of at least 70)

Structure (SMILES): COC(=O)C(O)(CO)c1nc(C2CC2)ncc1-c1ccccc1Cl (stereo not drawn) [Ex. 230]
- herbicidal activity (Matricaria inodora): good (A good herbicidal activity is given at values of at least 70)

Structure (SMILES): Cc1cnc(-c2nc(C3CC3)ncc2-c2ccccc2Cl)o1 [Ex. 314]
- herbicidal activity (Setaria viridis; 1000 g/ha): very good (a very good herbicidal activity is given at values of at least 85)
- herbicidal activity (Apera spica-venti [1]; 1000 g/ha): very good (a very good herbicidal activity is given at values of at least 85)
- herbicidal activity (Amaranthus retroflexus; 1000 g/ha): very good (a very good herbicidal activity is given at values of at least 85)
- herbicidal activity (Echinocloa crus-galli [2]; [6]): very good (a very good herbicidal activity is given at values of at least 85)
- herbicidal activity (Echinocloa crus-galli [2]; post-emergence, 1000 g/ha): very good (a very good herbicidal activity is given at values of at least 85)

Structure (SMILES): Clc1ccccc1-c1cnc(C2CC2)nc1-c1ncco1 [Ex. 315]
- herbicidal activity (Alopecurus myosuroides; post-emergence, 2000 g/ha): very good (a very good herbicidal activity is given at values of at least 85)
- herbicidal activity (Apera spica-venti [1]; 2000 g/ha): very good (a very good herbicidal activity is given at values of at least 85)
- herbicidal activity (Amaranthus retroflexus; 2000 g/ha): very good (a very good herbicidal activity is given at values of at least 85)
- herbicidal activity (Echinocloa crus-galli [2]; 2000 g/ha, printed under post-emergence, method not restated): very good (a very good herbicidal activity is given at values of at least 85)
- herbicidal activity (Echinocloa crus-galli [2]; post-emergence, 2000 g/ha): very good (a very good herbicidal activity is given at values of at least 85)

Structure (SMILES): CC1OC1c1nc(C2CC2)ncc1-c1ccccc1Br (stereo not drawn) [Ex. 213]
- herbicidal activity (Echinocloa crus-galli [4]; 2000 g/ha): good (A good herbicidal activity is given at values of at least 70)
- herbicidal activity (Poa annua; 2000 g/ha): good (A good herbicidal activity is given at values of at least 70)
- herbicidal activity (Apera spica-venti [3]; 2000 g/ha): good (A good herbicidal activity is given at values of at least 70)
- herbicidal activity (Alopecurus myosuroides; post-emergence, 2000 g/ha): very good (a very good herbicidal activity is given at values of at least 85)
- herbicidal activity (Avena fatua): very good (a very good herbicidal activity is given at values of at least 85)
- herbicidal activity (Echinocloa crus-galli [2]; post-emergence, 2000 g/ha): very good (a very good herbicidal activity is given at values of at least 85)

Structure (SMILES): Clc1ccccc1-c1cnc(C2CC2)nc1-c1ccncn1 [Ex. 225]
- herbicidal activity (Echinocloa crus-galli [4]; 2000 g/ha): very good (a very good herbicidal activity is given at values of at least 85)
- herbicidal activity (Poa annua; 2000 g/ha): very good (a very good herbicidal activity is given at values of at least 85)
- herbicidal activity (Apera spica-venti [3]; 2000 g/ha): very good (a very good herbicidal activity is given at values of at least 85)
- herbicidal activity (Alopecurus myosuroides; post-emergence, 2000 g/ha): very good (a very good herbicidal activity is given at values of at least 85)
- herbicidal activity (Avena fatua): very good (a very good herbicidal activity is given at values of at least 85)
- herbicidal activity (Echinocloa crus-galli [2]; post-emergence, 2000 g/ha): very good (a very good herbicidal activity is given at values of at least 85)

Structure (SMILES): CC(C)=CC(O)Cc1nc(C2CC2)ncc1-c1ccccc1Cl (stereo not drawn) [Ex. 223]
- herbicidal activity (Echinocloa crus-galli [4]; 2000 g/ha): very good (a very good herbicidal activity is given at values of at least 85)
- herbicidal activity (Poa annua; 2000 g/ha): very good (a very good herbicidal activity is given at values of at least 85)
- herbicidal activity (Apera spica-venti [3]; 2000 g/ha): very good (a very good herbicidal activity is given at values of at least 85)
- herbicidal activity (Abutilon theophrasti): very good (a very good herbicidal activity is given at values of at least 85)
- herbicidal activity (Amaranthus retroflexus; 2000 g/ha): very good (a very good herbicidal activity is given at values of at least 85)
- herbicidal activity (Echinocloa crus-galli [2]; post-emergence, 2000 g/ha): very good (a very good herbicidal activity is given at values of at least 85)

Structure (SMILES): COC(=O)C(OC(C)=O)c1nc(C2CC2)ncc1-c1ccccc1Cl (stereo not drawn) [Ex. 222]
- herbicidal activity (Matricaria inodora): very good (a very good herbicidal activity is given at values of at least 85)
- herbicidal activity (Abutilon theophrasti): very good (a very good herbicidal activity is given at values of at least 85)
- herbicidal activity (Amaranthus retroflexus; 2000 g/ha): very good (a very good herbicidal activity is given at values of at least 85)

Structure (SMILES): Fc1cccc(Cl)c1-c1cnc(C2CC2)nc1-c1ccoc1 [Ex. 41]
- herbicidal activity (Matricaria inodora): very good (a very good herbicidal activity is given at values of at least 85)
- herbicidal activity (Alopecurus myosuroides; post-emergence, 2000 g/ha): very good (a very good herbicidal activity is given at values of at least 85)

Structure (SMILES): Clc1ccccc1-c1cnc(C2CC2)nc1-c1cccs1 [Ex. 29]
- herbicidal activity (Matricaria inodora): very good (a very good herbicidal activity is given at values of at least 85)
- herbicidal activity (Amaranthus retroflexus; 2000 g/ha): very good (a very good herbicidal activity is given at values of at least 85)

Structure (SMILES): Cc1ccc(-c2nc(C3CC3)ncc2-c2ccccc2I)o1 [Ex. 108]
- herbicidal activity (Polygonum convolvulus; 500 g/ha): very good (a very good herbicidal activity is given at values of at least 85)
- herbicidal activity (Alopecurus myosuroides; post-emergence, 500 g/ha): good (A good herbicidal activity is given at values of at least 70)

Reference: US11178871B2, “Herbicidal pyrimidine compounds” (BASF SE, priority 2016, dated 2021)
